Laboratory results from patent publication US10245330B2, “Compositions and methods for imaging” (The Regents of the University of California, priority 2010, dated 2019).

Experiment: Solubility in water
Type: physicochemical
Procedure: ^13C-BFA has suitable properties for polarization by DNP in that it is soluble forming >5 M solutions in water and readily forms a glass upon flash freezing. A 5 M solution of ^13C-BFA in water was prepared with 15 mM OXO63 radical and polarized by DNP by irradiating at 90940 MHz. A buildup time constant of 830 s provided ˜5% polarization (5450-fold enhancement factor) after 45 minutes. The spectroscopic detection of H2O2 of the probe was accomplished by rapidly dissolving polarized samples of ^13C-BFA in 100 mM phosphate buffer at pH 7.8 to a final concentration of 5 mM, followed by reaction with various concentrations of hydrogen peroxide.

## O=C(c1ccccc1)[13C](=O)O [^13C-BFA, ^13C-benzoylformic acid]
  solubility (solutions in water): > 5000 mM
